Results on 34 compounds are retold here after patent US9029366B2, “Substituted bicyclic alkoxy pyrazole analogs as allosteric modulators of mGluR5 receptors” (Vanderbilt University, priority 2012, dated 2015).

The structures appear in SMILES notation.

One data set deals with human mGluR5 (Homo sapiens, UniProt P41594). The data set is described as follows: Cell-based functional Ca2+ mobilization assay (FDSS), potentiation of glutamate EC20 response, HEK293A cells transfected with human mGluR5a (H10H or H12H cell line). The conditions noted are these: H10H cell line expressing recombinant human mGluR5, in presence of glutamate EC20, ** = compound is an antagonist; for EC50: read-out: pEC50 (converted); for Emax: HEK293-A, % of maximal glutamate response. As for the experimental part:
Human embryonic kidney (HEK) cells transfected with rat mGluR5 were plated in clear bottom assay plates for assay in a Functional Drug Screening System (FDSS). In the alternative assay, HEK cells transfected with human mGluR5 were plated for assay in the FDSS. In some cases the HEK cells transfected with human mGluR5 are the H10H cell line. Alternatively, the HEK cells transfected with human mGluR5 are the H12H cell line. […] The cells were loaded with a Ca^2+-sensitive fluorescent dye (e.g., Fluo-4), and the plates were washed and placed in the FDSS instrument. After establishment of a fluorescence baseline for about three seconds, the compounds of the present invention were added to the cells, and the response in cells was measured. Five minutes later, an mGluR5 agonist (e.g., glutamate, 3,5-dihydroxyphenylglycine, or quisqualate) was added to the cells, and the response of the cells was measured.
The above described assay can be operated in two modes. In the first mode, a range of concentrations of the present compounds were added to cells, followed by a single fixed concentration of agonist. If a compound acted as a potentiator, an EC50 value for potentiation and a maximum extent of potentiation by the compound at this concentration of agonist was determined by non-linear curve fitting. In the second mode, several fixed concentrations of the present compounds were added to various wells on a plate, followed by a range of concentrations of agonist for each concentration of present compound; the EC50 values for the agonist at each concentration of compound were determined by non-linear curve fitting. A decrease in the EC50 value of the agonist with increasing concentrations of the present compounds (a leftward shift of the agonist concentration-response curve) is an indication of the degree of mGluR5 potentiation at a given concentration of the present compound. An increase in the EC50 value of the agonist with increasing concentrations of the present compounds (a rightward shift of the agonist concentration-response curve) is an indication of the degree of mGluR5 antagonism at a given concentration of the present compound. The second mode also indicates whether the present compounds also affect the maximum response to mGluR5 to agonists.
Human mGluR5a cDNA in pCMV6-XL6 mammalian expression plasmid was purchased from OriGene Technologies, Inc. (catalogue number SC326357) and subcloned into pcDNA3.1(−). Human embryonic kidney (HEK)293A cells were then transfected with human mGluR5a pcDNA3.1(−) using LipofectAmine2000 (Invitrogen) and monoclones were selected and tested for functional response using a Ca^2+ mobilization assay. Monoclones were named for the species (“H” for human) plus the location on the plate (e.g. “10H”).
HEK cells transfected with the human mGluR5a receptor (H10H or H12H cell line) were plated at 15,000 cells/well in clear-bottomed poly-D-lysine-coated assay plates (BD Falcon) in glutamate-glutamine-free growth medium and incubated overnight at 37° C. and 5% CO2. Cell-lines used were either the H10H or H12H cell-lines expressing the human mGluR5 receptor. The following day, the growth medium was removed and the cells were washed with assay buffer containing 1× Hank's balanced salt solution (Invitrogen, Carlsbad, Calif.), 20 mM HEPES, 2.5 mM probenecid, pH 7.4 and left with 20 μL of this reagent. Following this step, the cells were loaded with calcium indicator dye, fluo-4 AM, to a final concentration of 2 μM and incubated for 40-45 min at 37° C. The dye solution was removed and replaced with assay buffer. Cell plates were held for 10-15 min at room temperature and were then loaded into the Functional Drug Screening System 6000 (FDSS 6000, Hamamatsu, Japan).
After establishment of a fluorescence baseline for about 3 seconds, the compounds of the present invention were added to the cells, and the response in cells was measured.
Background: Calcium assays in cells follow changes in intracellular calcium, usually with a dye or a luminescent sensor.

Chain of human mGluR5 (P41594 21-1180 isoform P41594-2 limits assumed): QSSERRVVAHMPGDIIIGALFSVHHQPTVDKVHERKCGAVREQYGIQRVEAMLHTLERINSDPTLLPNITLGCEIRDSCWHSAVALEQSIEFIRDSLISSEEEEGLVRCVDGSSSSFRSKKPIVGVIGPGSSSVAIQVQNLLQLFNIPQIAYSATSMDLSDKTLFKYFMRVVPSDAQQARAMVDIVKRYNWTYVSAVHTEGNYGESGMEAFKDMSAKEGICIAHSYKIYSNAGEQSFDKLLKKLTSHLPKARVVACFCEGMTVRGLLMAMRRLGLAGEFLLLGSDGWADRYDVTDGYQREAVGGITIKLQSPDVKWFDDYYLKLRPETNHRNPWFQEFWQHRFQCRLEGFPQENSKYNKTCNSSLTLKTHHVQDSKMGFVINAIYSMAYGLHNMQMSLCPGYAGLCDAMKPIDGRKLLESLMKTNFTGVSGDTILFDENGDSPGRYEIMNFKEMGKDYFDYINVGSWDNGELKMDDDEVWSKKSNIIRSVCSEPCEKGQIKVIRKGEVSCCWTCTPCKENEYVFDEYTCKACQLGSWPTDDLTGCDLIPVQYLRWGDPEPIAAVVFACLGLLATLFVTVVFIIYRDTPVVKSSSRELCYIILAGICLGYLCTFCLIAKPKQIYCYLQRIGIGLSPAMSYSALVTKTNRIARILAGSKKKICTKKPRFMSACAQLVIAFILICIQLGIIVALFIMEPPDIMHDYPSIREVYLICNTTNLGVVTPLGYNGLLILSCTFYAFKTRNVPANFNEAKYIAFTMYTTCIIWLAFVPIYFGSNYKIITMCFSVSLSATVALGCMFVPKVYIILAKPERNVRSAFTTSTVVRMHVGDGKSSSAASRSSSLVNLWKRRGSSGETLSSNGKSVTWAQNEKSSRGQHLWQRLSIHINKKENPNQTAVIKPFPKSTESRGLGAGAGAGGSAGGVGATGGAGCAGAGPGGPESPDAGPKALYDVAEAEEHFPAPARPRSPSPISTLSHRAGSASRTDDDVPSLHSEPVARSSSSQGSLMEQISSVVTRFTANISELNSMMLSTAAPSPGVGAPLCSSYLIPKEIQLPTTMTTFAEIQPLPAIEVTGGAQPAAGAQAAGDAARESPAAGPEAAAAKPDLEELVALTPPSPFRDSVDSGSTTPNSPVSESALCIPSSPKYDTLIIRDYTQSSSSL

On to `O=C(c1cccc(F)c1)N1CCn2nc(OCc3ccccc3)cc2C1` [Example B2, 2-(benzyloxy)-5-[(3-fluorophenyl)carbonyl]-4,5,6,7-tetrahydropyrazolo[1,5-a]pyrazine], for which the melting point stood at 120.8 °C. On human mGluR5, the EC50 is 251 nM and the Emax was 46%.

The compound `N#Cc1cccc(COc2cc3n(n2)CCN(C(=O)c2ccc(F)cc2)C3)c1` [Example B3, 3-[({5-[(4-fluorophenyl)carbonyl]-4,5,6,7-tetrahydropyrazolo[1,5-a]pyrazin-2-yl}oxy)methyl]benzonitrile] displayed a melting point of over 300 °C. On human mGluR5, the EC50 is 126 nM and the Emax was 60%.

`Cc1cc(COc2cc3n(n2)CCN(C(=O)c2ccc(F)cc2)C3)ccn1` [Example B4, 5-[(4-fluorophenyl)carbonyl]-2-[(2-methylpyridin-4-yl)methoxy]-4,5,6,7-tetrahydropyrazolo[1,5-a]pyrazine] returned a melting point of 103.4 °C. Besides, on human mGluR5, the EC50 was over 10000 nM and the Emax was found to be 26%.

`N#Cc1cccc(C(=O)N2CCn3nc(OCc4ccccc4)cc3C2)c1` [Example B5]: the melting point was 151.6 °C. Also, on human mGluR5, the EC50 is 724 nM and the Emax was 42%.

`N#Cc1cc(F)cc(C(=O)N2CCn3nc(OCc4ccccc4)cc3C2)c1` [Example B6] showed a melting point of 117.6 °C. Besides, on human mGluR5, the EC50 is over 30200 nM and the Emax amounted to 24%.

In turn, `O=C(c1ccc(F)cc1)N1CCn2nc(OCc3ccc(F)cc3)cc2C1` [Example B9] displayed a melting point of 165.4 °C. On human mGluR5, the EC50 was 479 nM and the Emax turned out to be 54%.

In turn, `O=C(c1ccc(F)cc1)N1CCn2nc(OCc3cccc(F)c3)cc2C1` [Example B10] yielded a melting point of over 300 °C. In addition, on human mGluR5, the EC50 is 89.1 nM and the Emax was 62%.

For `O=C(c1ccc(F)cc1)N1CCn2nc(OCc3ccccc3F)cc2C1` [Example B11], the melting point was found to be 135.2 °C. Further, on human mGluR5, the EC50 was 234 nM and the Emax is 64%.

For `Cc1ccc(COc2cc3n(n2)CCN(C(=O)c2ccc(F)cc2)C3)cc1` [Example B12], the melting point worked out at 156.9 °C. Further, on human mGluR5, the EC50 was over 30200 nM and the Emax was 28%.

`Cc1cccc(COc2cc3n(n2)CCN(C(=O)c2ccc(F)cc2)C3)c1` [Example B13] returned a melting point of 118.9 °C. Further, at human mGluR5, the EC50 was 339 nM and the maximal effect (Emax) stood at 59%.

With `Cc1ccccc1COc1cc2n(n1)CCN(C(=O)c1ccc(F)cc1)C2` [Example B14], the melting point was found to be 99.3 °C. Besides, on human mGluR5, the EC50 is 2000 nM and the Emax was determined as 51%.

`COc1ccc(COc2cc3n(n2)CCN(C(=O)c2ccc(F)cc2)C3)cc1` [Example B15]: the melting point worked out at 108.3 °C. Further, on human mGluR5, the EC50 is over 30200 nM and the Emax worked out at 22%.

`COc1cccc(COc2cc3n(n2)CCN(C(=O)c2ccc(F)cc2)C3)c1` [Example B16] had a melting point of 120.8 °C. In addition, at human mGluR5, the EC50 was 1410 nM and the maximum response (Emax) worked out at 49%.

`COc1ccccc1COc1cc2n(n1)CCN(C(=O)c1ccc(F)cc1)C2` [Example B17] came in with a melting point of 135.6 °C. At human mGluR5, the EC50 was over 10000 nM and the Emax was determined as 47%.

Take `O=C(c1ccc(F)cc1)N1CCn2nc(OCc3ccccn3)cc2C1` [Example B18]: the melting point came out at 138.1 °C. At human mGluR5, the EC50 is over 30200 nM and the Emax came out at 22%.

The compound `O=C(c1ccc(F)cc1)N1CCn2nc(OCc3ccncc3)cc2C1` [Example B20] came in with a melting point of 178.8 °C. Besides, at human mGluR5, the EC50 is 457 nM and the Emax stood at 53%.

Consider `O=C(c1ccc(F)cn1)N1CCn2nc(OCc3ccccc3)cc2C1` [Example B28], for which the melting point was found to be 123 °C. Moreover, on human mGluR5, the EC50 was 1510 nM and the Emax was 60%.

In turn, `O=C(c1ncccc1Cl)N1CCn2nc(OCc3ccccc3)cc2C1` [Example B29] had a melting point of 135.1 °C. On human mGluR5, the EC50 is over 30200 nM and the Emax was determined as 27%.

As to `Cc1nccc(C(=O)N2CCn3nc(OCc4ccccc4)cc3C2)n1` [Example B31], the melting point came to 134 °C. Further, at human mGluR5, the EC50 is over 30200 nM and the Emax was 28%.

For the compound `Cc1cccc(C(=O)N2CCn3nc(OCc4ccccc4)cc3C2)n1` [Example B32], the melting point is 81.2 °C. Besides, on human mGluR5, the EC50 is over 10000 nM and the Emax stood at 32%.

The compound `Cc1ccc(C(=O)N2CCn3nc(OCc4ccccc4)cc3C2)cn1` [Example B33] displayed a melting point of 104.6 °C. Further, at human mGluR5, the EC50 was 3890 nM and the Emax amounted to 44%.

The compound `Cc1ncccc1C(=O)N1CCn2nc(OCc3ccccc3)cc2C1` [Example B34] registered a melting point of 129.2 °C. Also, on human mGluR5, the EC50 is over 30200 nM and the Emax is 28%.

`COc1ccc(C(=O)N2CCn3nc(OCc4ccccc4)cc3C2)cn1` [Example B35] gave a melting point of 138.6 °C. On human mGluR5, the EC50 was over 30200 nM and the Emax worked out at 27%.

`COc1cccc(C(=O)N2CCn3nc(OCc4ccccc4)cc3C2)n1` [Example B82] returned a melting point of 97.1 °C. Besides, on human mGluR5, the EC50 was over 30200 nM and the Emax was determined as 9%.

The compound `Cc1ncc(C(=O)N2CCn3nc(OCc4ccccc4)cc3C2)cn1` [Example B83] came in with a melting point of 166.4 °C. In addition, on human mGluR5, the EC50 is over 30200 nM and the Emax worked out at 27%.

On to `O=C(c1ccc(F)cc1)N1CCCn2nc(OCc3ccncc3)cc2C1` [Example B89], for which the melting point was over 300 °C. Further, at human mGluR5, the EC50 is over 10000 nM and the Emax was determined as 40%.

Compound `O=C(c1cc(F)cc(F)c1)N1CCn2nc(OCc3cccc(F)c3)cc2C1` [Example B94] registered a melting point of 154.7 °C. Also, on human mGluR5, the EC50 is 61.7 nM and the Emax was determined as 25%.

The compound `N#Cc1cccc(COc2cc3n(n2)CCN(C(=O)c2ccccc2)C3)c1` [Example B95] registered a melting point of 150.4 °C. Besides, on human mGluR5, the EC50 was 66.1 nM and the Emax amounted to 48.5%.

The compound `O=C(c1ccccc1)N1CCn2nc(OCc3ccc(F)cc3)cc2C1` [Example B97] gave a melting point of 131 °C. For the same compound, on human mGluR5, the EC50 is 331 nM and the Emax is 48%.

As to `O=C(c1cccc(Cl)c1)N1CCn2nc(OCc3cccc(F)c3)cc2C1` [Example B98], the melting point was 117 °C. At human mGluR5, the EC50 is 112 nM and the Emax came to 66%.

Regarding `N#Cc1cc(F)cc(C(=O)N2CCn3nc(OCc4cccc(F)c4)cc3C2)c1` [Example B101], the melting point was found to be 118.2 °C. For the same compound, at human mGluR5, the EC50 was over 30200 nM and the maximal response (Emax) amounted to 32%.

On to `O=C(c1ccc(F)cc1F)N1CCn2nc(OCc3ccccc3)cc2C1` [Example B102], for which the melting point is 182.1 °C. At human mGluR5, the EC50 is 148 nM and the Emax amounted to 76%.

Turning to `O=C(c1cc(F)cc(F)c1)N1CCn2nc(OCc3ccccc3)cc2C1` [Example B104], the melting point amounted to 165.2 °C. Also, on human mGluR5, the EC50 is 138 nM and the Emax was 44.5%.

`N#Cc1cccc(COc2cc3n(n2)CCN(C(=O)c2cccc(F)c2)C3)c1` [Example B106] returned a melting point of 103.3 °C. At human mGluR5, the EC50 was 166 nM and the Emax was found to be 37%.

By melting point is commonly meant the temperature, or range, at which the solid turns liquid. Usually Emax stands for the size of the effect at its maximum, as opposed to the concentration needed.
